Holding throughout (assay type): cell-based
The subject of experiment [1] is GADD45α. Put plainly: GADD45α induction in PC-3 cells after SMRT knock down. As to conditions: SMRT knocked down by RNAi. The source says: SIRNA fragments (22mers) were generated in vitro using a Dicer generation system according to the manufacturer's protocol (Gene Therapy Systems, San Diego, Calif.). Briefly, a 650 bp region from the human SMRT gene sequence corresponding to 112 to 762 was amplified using the following primers containing T7 promoter sequences;
FS: 5′-[…]-3′ and RV: 5′-[…]-3′. This was subsequently cloned into the pGEM T easy vector (Promega), using the multiple cloning sites to allow for sequencing, large scale harvest. Digestion with ECoR1 released a pure concentrated template for in vitro […] with primers containing T7 recognition sequences to generate double stranded mRNA. This was subsequently cleaved with recombinant human Dicer enzyme to generate a pool of 22mers which cover the region targeted in the 5′prime region of the SMRT gene. Five hundred ng of purified double stranded RNA 22mers were transfected into each well (2×10^5 cells/well in 24-well plates) for 12 hrs. Cells were then left for a further 72 hr to allow gene silencing and subsequently treated with 1α,25(OH)2D3 (100 nM) for 6 hr and total RNA was harvested and Q-RT-PCR for SMRT and target genes was undertaken as above.

For experiment [2], the system named is prostate cancer cell lines. Put plainly: Proliferation assay (ATP bioluminescence), prostate cancer cell lines, single agents and combinations. The protocol: (§1) The action of individual agents alone and in combination was examined using a bioluminescent technique to measure changes in cellular ATP (ViaLight HS, LumiTech, Nottingham, U.K.) with previously optimised conditions according to the manufacturer's instructions (Rashid, S. F. et al. Supra). Briefly, cells were plated in 96 well white-walled tissue culture-treated plates (Fisher Scientific Ltd. Loughborough, U.K.) (cancer cell lines at 2×10^3 cells/well; PrEC at 3.5×10^3 cells/well). […] After the incubation period, 100 μl of nucleotide releasing reagent was added to each well and cells were left for 30 minutes at room temperature. Liberated ATP was quantitated by adding 20 μl of ATP monitoring reagent (containing luciferin and luciferase) and measuring luminescence with a microplate luminometer (Berthold Detection Systems, Fisher Scientific Ltd.). ATP levels were recorded in relative luciferase units and growth inhibition was expressed as a percentage of control.
The interactions of two compounds were assessed by measuring the mean of either the nuclear receptor ligand or the HDAC inhibitor acting alone or in combination. The mean observed combined effect was compared to the individual effects of the agents added together, using the Student's t-test. […] All other analyses were also compared using the Student's t-test.

Experiment [3] deals with EJ-28. Put plainly: Proliferation assay (ATP bioluminescence), EJ-28 bladder cancer cells. As to conditions: for Sensitivity of EJ-28 proliferation to ligand treatment: EJ-28 cells, ligand alone. The protocol:
as §1

The test system of experiment [4] is RT-4. Briefly: Proliferation assay (ATP bioluminescence), RT-4 bladder cancer cells. As to conditions: Homo sapiens; RT-4 cells, 96 h; read-out: Estimated dose required to inhibit bladder cancer cell proliferation by 50% (ED50). Here is the method:
as §1

Experiment [5] deals with p21^(waf1/cip1). Briefly: Upregulation of CDKI p21(waf1/cip1). As to conditions: 2 μM. Here is the method:
(§2) Cells were seeded at a density of 2×10^4/cm^2 and allowed to grow for 36 h to ensure that cells were in mid-exponential phase upon treatment. Total RNA was extracted using the GenElute RNA extraction system (Sigma) according to manufacturer's instructions. Primary cultures were serially passaged and grown to 80% confluency in standard serum-free medium. Cells were fed one day prior to isolation of total RNA using the Qiagen RNeasy Midi kit (Qiagen, Palo Alto, Calif., USA).
(§3) For real time reverse transcription-polymerase chain reaction (RT-PCR), cDNA was prepared from 1 μg of total RNA by reverse transcription with Mu-MLV (Promega Southampton, UK) at 42° C. for 60 min in the presence of 100 mM Tris-HCl, pH 9.0, 500 mM KCl and 2 mM MgCl2, 100 μM random hexamers (Pharmacia, Pisacataway, N.J.), 2 mM dNTP and 20 U RNAsin (Promega) in a 20 μl reaction volume.
(§4) Expression of specific mRNAs was quantitated using the ABI PRISM 7700 Sequence Detection System. […]
(§5) Data were expressed as Ct values (the cycle number at which logarithmic PCR plots cross a calculated threshold line) and used to determine δCt values (δCt=Ct of the target gene minus Ct of the housekeeping gene). […]

For experiment [6], the system named is GADD45α. Put plainly: GADD45α gene induction (Q-RT-PCR). As to conditions: 0.1 μM, 8 hr. The protocol:
as §2, §3, §4, §5

In experiment [7] the test system is DU-145 cells. Put plainly: Cell cycle analysis (propidium iodide flow cytometry). As to conditions: DU-145, 1 μM, after 24 hr (ctrl 41%). The protocol:
The effect of nuclear receptor ligands in combination with the HDAC inhibitors on the cell cycle was measured by staining DNA with propidium iodide (PI). Briefly, T25 flasks were seeded with 2.5×10^5 sub-confluent, exponentially proliferating cells, exposed to 100 nM 1α,25(OH)2D3 alone or combined with either 300 μM NaB or 15 nM TSA at times 0 (and re-dosed after 48 hours in 72 and 96 hr assays). After a total of 24, 48, 72 and 96 hours, cultures were harvested by trypsinising, counted and 1×10^6 cells were stained with PI buffer (10 μg/ml PI, 1% (w/v) tri-sodium citrate, 0.1% (v/v) Triton X-100, 100 μM sodium chloride (Sigma)). Cell cycle distribution was determined using a Becton-Dickinson Flow Cytometer and CellFIT Cell-Cycle Analysis software.
On the technique in general: In flow cytometry, cells or beads pass a laser one at a time.

Each structure is given as a SMILES string. Entries after “also recorded” stand apart in the source; their conditions may differ.

`C=C1/C(=C\C=C2/CCC[C@]3(C)[C@@H]([C@H](C)CCCC(C)(C)O)CC[C@@H]23)C[C@@H](O)C[C@@H]1O` [Vit D, 1α,25-dihydroxyvitamin D3]: the “GADD45α induction by ligand alone after SMRT knock down” value in experiment [1] is given as “very strongly enhanced”. Also, the “interaction of the ligand with SAHA on proliferation” value in experiment [2] (co-treatment with SAHA, listed as 1α,25(OH)2D3) is “did not appear to extend; also recorded: does not”. In experiment [2] (co-treatment with TSA), the “augmentation of the ligand's action by TSA” value was “augments”. For the same compound, the “Sensitivity of EJ-28 proliferation to ligand treatment” value in experiment [3] was “insensitive”.

As to `C[C@H](CCC(=O)O)[C@H]1CC[C@H]2[C@@H]3[C@H](O)C[C@@H]4C[C@H](O)CC[C@]4(C)[C@H]3CC[C@]12C` [CDA, chenodeoxycholic acid], the “ligand action in EJ-28 cells on co-treatment with SAHA” value in experiment [3] (EJ-28, co-treatment with SAHA) is “restored the actions”. Also, the “Sensitivity of EJ-28 proliferation to ligand treatment” value in experiment [3] is recorded as “insensitive”. For the same compound, the EC50 in experiment [4] was 11 µM.

Take `O=C(CCCCCCC(=O)Nc1ccccc1)NO` [SAHA, Suberoylanilide hydroxamic acid]: the “upregulation of the CDKI p21(waf1/cip1)” value in experiment [5] is “potent and immediate upregulation”. For the same compound, in experiment [6], the “GADD45α induction, individual agent alone” value was “not significant”. Further, in experiment [7], the “cells in G1” value was 64%.

(Values after patent US20090105343A1, “Cancer Therapy And Medicaments Therefor” (The University of Birmingham, priority 2004, published 2009).)
